Values of other authors, collected in patent publication US9398745B2, “Organic composition for protection of crops against black frost and the method for its application” (priority 2014, dated 2016).

System: animals
Conditions: tests performed on animals

CC(O)CO (stereo not shown) [1,2 propanediol]
toxicity: low toxicity
